Measurements taken from the supplement of paper PMC10307832.

Tests used:
Experiment in all cases: relative viability (nuclei count vs DMSO), 5 days (fraction); higher = more cells survive
Linsitinib + OSI-027 = compound: C[C@]1(O)C[C@@H](c2nc(-c3ccc4ccc(-c5ccccc5)nc4c3)c3c(N)nccn32)C1 [Linsitinib] + COc1cccc2cc(-c3nc([C@H]4CC[C@H](C(=O)O)CC4)n4ncnc(N)c34)[nH]c12 [OSI-027] (partner 0.5 µM)
Procedure, shortened: (§1)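 Values are medians from duplicate plates. Each reflects relative viability, defined as the nuclei count of treated wells over that of vehicle wells. Lung cancer cell lines in 1536-well plates were pin-tool dosed one day after seeding with one drug alone or with a fixed anchor-drug dose plus five library-drug doses (not always all listed) in √10 steps, then fixed, stained and imaged at 4× after 5 days.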

Ispinesib + Pictilisib = compound: Cc1ccc(C(=O)N(CCCN)[C@@H](c2nc3cc(Cl)ccc3c(=O)n2Cc2ccccc2)C(C)C)cc1 [Ispinesib] + CS(=O)(=O)N1CCN(Cc2cc3nc(-c4cccc5[nH]ncc45)nc(N4CCOCC4)c3s2)CC1 [Pictilisib] (partner 1 µM)
Procedure, shortened: as §1

Ispinesib + Crizotinib = compound: Cc1ccc(C(=O)N(CCCN)[C@@H](c2nc3cc(Cl)ccc3c(=O)n2Cc2ccccc2)C(C)C)cc1 [Ispinesib] + C[C@@H](Oc1cc(-c2cnn(C3CCNCC3)c2)cnc1N)c1c(Cl)ccc(F)c1Cl [Crizotinib] (partner 1 µM)
Procedure, shortened: as §1

Ispinesib + Vorinostat = compound: Cc1ccc(C(=O)N(CCCN)[C@@H](c2nc3cc(Cl)ccc3c(=O)n2Cc2ccccc2)C(C)C)cc1 [Ispinesib] + O=C(CCCCCCC(=O)Nc1ccccc1)NO [Vorinostat] (partner 1 µM)
Procedure, shortened: as §1

Cell Line: RERF-LC-KJ
- relative viability (Linsitinib + OSI-027; first compound 0.01 µM): 0.617
- relative viability (Linsitinib + OSI-027; first compound 0.03162 µM): 0.602
- relative viability (Linsitinib + OSI-027; first compound 0.1 µM): 0.553
- relative viability (Linsitinib + OSI-027; first compound 0.3162 µM): 0.298
- relative viability (Linsitinib + OSI-027; first compound 1 µM): 0.251
- relative viability (Ispinesib + Pictilisib; first compound 0.001 µM): 0.508
- relative viability (Ispinesib + Pictilisib; first compound 0.003162 µM): 1.42
- relative viability (Ispinesib + Pictilisib; first compound 0.01 µM): 0.445
- relative viability (Ispinesib + Pictilisib; first compound 0.03162 µM): 0.322
- relative viability (Ispinesib + Pictilisib; first compound 0.1 µM): 0.297
- relative viability (Ispinesib + Crizotinib; first compound 0.001 µM): 0.884
- relative viability (Ispinesib + Crizotinib; first compound 0.003162 µM): 0.83
- relative viability (Ispinesib + Crizotinib; first compound 0.01 µM): 0.982
- relative viability (Ispinesib + Crizotinib; first compound 0.03162 µM): 0.587
- relative viability (Ispinesib + Crizotinib; first compound 0.1 µM): 0.301
- relative viability (Ispinesib + Vorinostat; first compound 0.001 µM): 0.585
- relative viability (Ispinesib + Vorinostat; first compound 0.003162 µM): 0.679
- relative viability (Ispinesib + Vorinostat; first compound 0.01 µM): 0.553
- relative viability (Ispinesib + Vorinostat; first compound 0.03162 µM): 0.39
- relative viability (Ispinesib + Vorinostat; first compound 0.1 µM): 0.397

Cell Line: SK-LU-1
- relative viability (Linsitinib + OSI-027; first compound 0.01 µM): 0.338
- relative viability (Linsitinib + OSI-027; first compound 0.1 µM): 0.295
- relative viability (Linsitinib + OSI-027; first compound 0.3162 µM): 0.221
- relative viability (Linsitinib + OSI-027; first compound 1 µM): 0.197
- relative viability (Ispinesib + Pictilisib; first compound 0.001 µM): 0.556
- relative viability (Ispinesib + Pictilisib; first compound 0.003162 µM): 0.65
- relative viability (Ispinesib + Pictilisib; first compound 0.01 µM): 0.674
- relative viability (Ispinesib + Pictilisib; first compound 0.03162 µM): 0.301
- relative viability (Ispinesib + Pictilisib; first compound 0.1 µM): 0.354
- relative viability (Ispinesib + Crizotinib; first compound 0.001 µM): 1.05
- relative viability (Ispinesib + Crizotinib; first compound 0.003162 µM): 0.932
- relative viability (Ispinesib + Crizotinib; first compound 0.01 µM): 0.968
- relative viability (Ispinesib + Crizotinib; first compound 0.03162 µM): 0.776
- relative viability (Ispinesib + Crizotinib; first compound 0.1 µM): 0.439
- relative viability (Ispinesib + Vorinostat; first compound 0.001 µM): 0.709
- relative viability (Ispinesib + Vorinostat; first compound 0.003162 µM): 0.763
- relative viability (Ispinesib + Vorinostat; first compound 0.01 µM): 0.911
- relative viability (Ispinesib + Vorinostat; first compound 0.03162 µM): 0.615
- relative viability (Ispinesib + Vorinostat; first compound 0.1 µM): 0.506

Cell Line: SK-MES-1
- relative viability (Linsitinib + OSI-027; first compound 0.01 µM): 0.541
- relative viability (Linsitinib + OSI-027; first compound 0.03162 µM): 0.417
- relative viability (Linsitinib + OSI-027; first compound 0.1 µM): 0.603
- relative viability (Linsitinib + OSI-027; first compound 0.3162 µM): 0.458
- relative viability (Linsitinib + OSI-027; first compound 1 µM): 0.332
- relative viability (Ispinesib + Pictilisib; first compound 0.001 µM): 0.374
- relative viability (Ispinesib + Pictilisib; first compound 0.003162 µM): 0.334
- relative viability (Ispinesib + Pictilisib; first compound 0.01 µM): 0.447
- relative viability (Ispinesib + Pictilisib; first compound 0.03162 µM): 0.35
- relative viability (Ispinesib + Pictilisib; first compound 0.1 µM): 0.24
- relative viability (Ispinesib + Crizotinib; first compound 0.001 µM): 1.07
- relative viability (Ispinesib + Crizotinib; first compound 0.003162 µM): 1
- relative viability (Ispinesib + Crizotinib; first compound 0.01 µM): 1.11
- relative viability (Ispinesib + Crizotinib; first compound 0.03162 µM): 0.751
- relative viability (Ispinesib + Crizotinib; first compound 0.1 µM): 0.284
- relative viability (Ispinesib + Vorinostat; first compound 0.001 µM): 1.31
- relative viability (Ispinesib + Vorinostat; first compound 0.003162 µM): 1.19
- relative viability (Ispinesib + Vorinostat; first compound 0.01 µM): 1.08
- relative viability (Ispinesib + Vorinostat; first compound 0.03162 µM): 0.233
- relative viability (Ispinesib + Vorinostat; first compound 0.1 µM): 0.221

Cell Line: SW 1573
- relative viability (Linsitinib + OSI-027; first compound 0.01 µM): 0.772
- relative viability (Linsitinib + OSI-027; first compound 0.03162 µM): 0.524
- relative viability (Linsitinib + OSI-027; first compound 0.1 µM): 0.502
- relative viability (Linsitinib + OSI-027; first compound 0.3162 µM): 0.393
- relative viability (Linsitinib + OSI-027; first compound 1 µM): 0.282
- relative viability (Ispinesib + Pictilisib; first compound 0.001 µM): 0.483
- relative viability (Ispinesib + Pictilisib; first compound 0.003162 µM): 0.469
- relative viability (Ispinesib + Pictilisib; first compound 0.01 µM): 0.715
- relative viability (Ispinesib + Pictilisib; first compound 0.03162 µM): 0.474
- relative viability (Ispinesib + Pictilisib; first compound 0.1 µM): 0.232
- relative viability (Ispinesib + Crizotinib; first compound 0.001 µM): 0.948
- relative viability (Ispinesib + Crizotinib; first compound 0.003162 µM): 0.66
- relative viability (Ispinesib + Crizotinib; first compound 0.01 µM): 1.03
- relative viability (Ispinesib + Crizotinib; first compound 0.03162 µM): 0.724
- relative viability (Ispinesib + Crizotinib; first compound 0.1 µM): 0.296
- relative viability (Ispinesib + Vorinostat; first compound 0.001 µM): 0.6
- relative viability (Ispinesib + Vorinostat; first compound 0.003162 µM): 0.678
- relative viability (Ispinesib + Vorinostat; first compound 0.01 µM): 0.646
- relative viability (Ispinesib + Vorinostat; first compound 0.03162 µM): 0.197
- relative viability (Ispinesib + Vorinostat; first compound 0.1 µM): 0.148
